# In PMC6804157, “Synthesis, Physicochemical Properties, and Biological Activities of 4-(S-Methyl-N-(2,2,2-Trifluoroacetyl)Sulfilimidoyl) Anthranilic Diamide” (Molecules, 2019):
# Values joined by “and” are separate entries in the source; they are usually repeats but may differ in a detail not shown here. Equal entries are not always repeated. Where two headings read alike, the source gives them in different places.
# What was measured:
# [1] = test system: third instar larvae of Spodoptera litura; assay: whole plant or invertebrate; assay type: in vivo; conditions: for mortality at 25 ppm / mortality at 50 ppm: Spodoptera litura
# Experimental: For the practical test, newly-prepared compounds 14–16 were evaluated for their insecticidal activities against the third instar larvae of Spodoptera litura according to the reported leaf-dip method.
# [35] According to the literature 3a, 3b, and 3d methods, the insecticidal assays were performed by Kyung Nong Co. Ltd., Korea. In detail, please see the Supplementary materials.
# Table S1 and S2: Larvicidal activity against Spodoptera (14 and 15a)
# The lavicidal activities of synthesized compounds were evaluated by the leaf-dip procedure. 6 The aqueous solution of prepared compounds and chlorantraniliprole in acetone (H 2O : acetone = 95 : 5) were sprayed to a cabbage leave placed on moistened filter paper (disc, diameter 8.8 cm) in petri dishes. After allowing to dry, the dishes were infested with 10 Spodoptera litura (third-instar). After 1, 2, 3, and 4 days, percentage of mortalities was evaluated. The treatments were replicated three times. For negative control, larvicidal activities were 0 % at each time. Ref. is chlorantraniliprole as a positive control.
# Table S1. Larvicidal activity depend on time against the 3 rd instar larvae of Spodoptera litura
# Entry Compd Concentration Larvicidal activity (%) at 24 h
# Entry Compd Concentration Larvicidal activity (%) at 48 h
# [2] = Equilibrium solubility (μSOL); assay type: physicochemical; conditions: 25 °C, thermodynamic from solid
# Experimental: (§1) Because we believed that the physicochemical properties of newly-prepared diamides play important roles in their insecticidal activities, the studies were extended to investigate the bioavailability of organosulfur-based crop-protecting agents 14, 15a, 15b, 16a, and 16b in terms of plant systemic properties and membrane permeability. As references, their properties of chlorantraniliprole and cyantraniliprole were also measured.
# (§2) [37] The physicochemical measurements for determinations of equilibrium solubility, log P, and PAMPA permeability were performed by Drug Discovery Platform Technology Team, KRICT, Korea.
# (§3) Table S3. Physical properties of organosulfur-substituted anthranilic […]
# (§4) Entry X Y Log P c,d Permeability e […]
# (§5) aMethod for determination of equilibrium solubility: μSOL 25; bat 25 ℃ and pH 7.4; cUsing ACD / Labs T3 method (pH – metric); dfor graphs, please see the supporting information, eMethod for determination of […]
# [3] = pH-metric log P (ACD/Labs T3 method); assay type: physicochemical
# Experimental: as §1
# [39] For LogP, Using ACD/Labs T3 method (pH—metric), for graphs; please see the Supplementary materials.
# as §3, §4, §5
# [4] = assay type: in vitro ADME; conditions: PAMPA
# Experimental: as §1, §2, §3, §4, §5
# [5] = 24 h, read-out: Larvicidal activity (%) at 24 h, Average, 24 h, 50 ppm, average of three replicates
# [6] = 24 h, read-out: Larvicidal activity (%) at 24 h, replicate 1, 24 h, 50 ppm
# [7] = 24 h, read-out: Larvicidal activity (%) at 24 h, replicate 2, 24 h, 50 ppm
# [8] = 24 h, read-out: Larvicidal activity (%) at 24 h, replicate 3, 24 h, 50 ppm
# [9] = 48 h, read-out: Larvicidal activity (%) at 48 h, Average, 48 h, 50 ppm, average of three replicates
# [10] = 48 h, read-out: Larvicidal activity (%) at 48 h, replicate 1, 48 h, 50 ppm
# [11] = 48 h, read-out: Larvicidal activity (%) at 48 h, replicate 2, 48 h, 50 ppm
# [12] = 48 h, read-out: Larvicidal activity (%) at 48 h, replicate 3, 48 h, 50 ppm
# [13] = 72 h, read-out: Larvicidal activity (%) at 72 h, replicate 1, 72 h, 50 ppm
# [14] = 72 h, read-out: Larvicidal activity (%) at 72 h, replicate 2, 72 h, 50 ppm
# [15] = 72 h, read-out: Larvicidal activity (%) at 72 h, replicate 3, 72 h, 50 ppm
# [16] = 96 h, read-out: Larvicidal activity (%) at 96 h, replicate 1, 96 h, 50 ppm
# [17] = 96 h, read-out: Larvicidal activity (%) at 96 h, replicate 2, 96 h, 50 ppm
# [18] = 96 h, read-out: Larvicidal activity (%) at 96 h, replicate 3, 96 h, 50 ppm
# [19] = third instar larvae of S. litura, 96 h, concentration of 14 and 15a 50 ppm
# [20] = read-out: Larvicidal Activity (%) at Time (h) 72 h, third instar larvae of S. litura, 72 h, concentration of 14 and 15a 50 ppm
# [21] = read-out: Larvicidal Activity (%) at Time (h) 96 h, third instar larvae of S. litura, 96 h, concentration of 14 and 15a 50 ppm
smiles,measurement,setting,value
"CNC(=O)c1cc(Cl)cc(C)c1NC(=O)c1cc(Br)nn1-c1ncccc1Cl [Chlorantraniliprole, chlorantraniliprole, reference compound]",Eating area (%),[1]; 25 ppm,0–5%
same,mortality at 25 ppm,"[1]; 24 h, read-out: Larvicidal activity (%) at 24 h, replicate 2, 24 h, 25 ppm",30%
same,mortality at 25 ppm,"[1]; 48 h, read-out: Larvicidal activity (%) at 48 h, Average, 48 h, 25 ppm, average of three replicates",86.7%
same,mortality at 25 ppm,"[1]; 48 h, read-out: Larvicidal activity (%) at 48 h, replicate 1, 48 h, 25 ppm",90%
same,mortality at 25 ppm,"[1]; 48 h, read-out: Larvicidal activity (%) at 48 h, replicate 2, 48 h, 25 ppm",80%
same,mortality at 25 ppm,"[1]; 48 h, read-out: Larvicidal activity (%) at 48 h, replicate 3, 48 h, 25 ppm",90%
same,mortality at 25 ppm,"[1]; 72 h, read-out: Larvicidal activity (%) at 72 h, Average, 72 h, 25 ppm, average of three replicates",100%
same,mortality at 25 ppm,"[1]; 72 h, read-out: Larvicidal activity (%) at 72 h, replicate 1, 72 h, 25 ppm",100%
same,mortality at 25 ppm,"[1]; 72 h, read-out: Larvicidal activity (%) at 72 h, replicate 2, 72 h, 25 ppm",100%
same,mortality at 25 ppm,"[1]; 72 h, read-out: Larvicidal activity (%) at 72 h, replicate 3, 72 h, 25 ppm",100%
same,mortality at 25 ppm,"[1]; 96 h, read-out: Larvicidal activity (%) at 96 h, Average, 96 h, 25 ppm, average of three replicates",100%
same,mortality at 25 ppm,"[1]; 96 h, read-out: Larvicidal activity (%) at 96 h, replicate 1, 96 h, 25 ppm",100%
same,mortality at 25 ppm,"[1]; 96 h, read-out: Larvicidal activity (%) at 96 h, replicate 2, 96 h, 25 ppm",100%
same,mortality at 25 ppm,"[1]; 96 h, read-out: Larvicidal activity (%) at 96 h, replicate 3, 96 h, 25 ppm",100%
same,mortality,"[1]; read-out: Larvicidal activity (%) at 24 h, replicate 2, 24 h, 25 ppm, listed as Ref.",20%
same,mortality,"[1]; read-out: Larvicidal activity (%) at 48 h, Average, 48 h, 25 ppm, average of three replicates, listed as Ref.",66.7%
same,mortality,"[1]; read-out: Larvicidal activity (%) at 48 h, replicate 2, 48 h, 25 ppm, listed as Ref.",70%
same,mortality,"[1]; read-out: Larvicidal activity (%) at 72 h, Average, 72 h, 25 ppm, average of three replicates",100%
same,mortality,"[1]; read-out: Larvicidal activity (%) at 72 h, replicate 1, 72 h, 25 ppm",100%
same,mortality,"[1]; read-out: Larvicidal activity (%) at 72 h, replicate 2, 72 h, 25 ppm",100%
same,mortality,"[1]; read-out: Larvicidal activity (%) at 72 h, replicate 3, 72 h, 25 ppm",100%
same,mortality,"[1]; read-out: Larvicidal activity (%) at 96 h, Average, 96 h, 25 ppm, average of three replicates",100%
same,mortality,"[1]; read-out: Larvicidal activity (%) at 96 h, replicate 1, 96 h, 25 ppm",100%
same,mortality,"[1]; read-out: Larvicidal activity (%) at 96 h, replicate 2, 96 h, 25 ppm",100%
same,mortality,"[1]; read-out: Larvicidal activity (%) at 96 h, replicate 3, 96 h, 25 ppm",100%
same,solubility,"[2]; aqueous buffer, μSOL, at 25 ℃ and pH 7.4, read-out: Solubility (Equilibrium)",21.5 ± 1.59 µM
same,solubility,"[2]; pH 7.4, aqueous buffer",0.0104 ± 0.000771 mg/mL
same,logP,"[3]; ACD/Labs T3 method (pH-metric), read-out: Log P",5.25
same,Permeability,[4],- 4.3 ± 0.046
"CNC(=O)c1cc(S(C)=NC(=O)C(F)(F)F)cc(C)c1NC(=O)c1cc(Br)nn1-c1ncccc1Cl (stereo not drawn) [Compound 15a, 3-Bromo-1-(3-chloropyridin-2-yl)-N-(2-methyl-4-(S-methyl-N-(2,2,2-trifluoroacetyl)sulfinimidoyl)-6-(methylcarbamoyl)phenyl)-1H-pyrazole-5-carboxamide]",mortality at 50 ppm,[1]; [5],0%
same,mortality at 50 ppm,[1]; [6],0%
same,mortality at 50 ppm,[1]; [7],0%
same,mortality at 50 ppm,[1]; [8],0%
same,mortality at 50 ppm,[1]; [9],0%
same,mortality at 50 ppm,[1]; [10],0%
same,mortality at 50 ppm,[1]; [11],0%
same,mortality at 50 ppm,[1]; [12],0%
same,mortality at 50 ppm,"[1]; 72 h, read-out: Larvicidal Activity (%) at Time (h) 72 h, third instar larvae of S. litura, 72 h, concentration of 14 and 15a 50 ppm",46.7%
same,mortality at 50 ppm,[1]; [13],50%
same,mortality at 50 ppm,[1]; [14],40%
same,mortality at 50 ppm,[1]; [15],50%
same,mortality at 50 ppm,"[1]; 96 h, read-out: Larvicidal Activity (%) at Time (h) 96 h, third instar larvae of S. litura, 96 h, concentration of 14 and 15a 50 ppm",53.3%
same,mortality at 50 ppm,[1]; [16],50%
same,mortality at 50 ppm,[1]; [17],50%
same,mortality at 50 ppm,[1]; [18],60%
same,Eating Area (%) 96 h,[1]; [19],5–10%
same,solubility,"[2]; pH 7.4, aqueous buffer",397 µM and 241 µg/mL
same,logP,[3],3.74
same,Permeability,[4],- 4.5 ± 0.059
"CNC(=O)c1cc([S+](C)[O-])cc(C)c1NC(=O)c1cc(Br)nn1-c1ncccc1Cl (stereo not drawn) [Compound 15b, 3-bromo-1-(3-chloropyridin-2-yl)-N-(2-methyl-6-(methylcarbamoyl)-4-(methylsulfinyl)phenyl)-1H-pyrazole-5-carboxamide]",mortality,[1]; [20],0%
same,mortality,[1]; [21],0%
same,Eating Area (%) 96 h,[1]; [19],>30%
same,solubility,"[2]; pH 7.4, aqueous buffer",486 µM and 248 µg/mL
same,logP,[3],2.59
same,Permeability,[4],- 4.8 ± 0.037
"CNC(=O)c1cc(S(C)(=O)=O)cc(C)c1NC(=O)c1cc(Br)nn1-c1ncccc1Cl [Compound 16b, 3-Bromo-1-(3-chloropyridin-2-yl)-N-(2-methyl-6-(methylcarbamoyl)-4-(methylsulfonyl)phenyl)-1H-pyrazole-5-carboxamide]",mortality,[1]; [20],0%
same,mortality,[1]; [21],0%
same,Eating Area (%) 96 h,[1]; [19],>30%
same,solubility,"[2]; pH 7.4, aqueous buffer",124 µM and 65.6 µg/mL
same,logP,[3],3.04
same,Permeability,[4],- 4.5 ± 0.030
"CNC(=O)c1cc(C#N)cc(C)c1NC(=O)c1cc(Br)nn1-c1ncccc1Cl [Cyantraniliprole, cyantraniliprole, reference compound]",solubility,"[2]; pH 7.4, aqueous buffer",378 µM and 179 µg/mL
same,logP,[3],3.5
same,Permeability,[4],- 4.4 ± 0.077
"CNC(=O)c1cc(SC)cc(C)c1NC(=O)c1cc(Br)nn1-c1ncccc1Cl [Compound 14, 3-Bromo-1-(3-chloropyridin-2-yl)-N-(2-methyl-6-(methylcarbamoyl)-4-(methylthio)phenyl)-1H-pyrazole-5-carboxamide]",mortality at 50 ppm,[1]; [5],0%
same,mortality at 50 ppm,[1]; [6],0%
same,mortality at 50 ppm,[1]; [7],0%
same,mortality at 50 ppm,[1]; [8],0%
same,mortality at 50 ppm,[1]; [9],13.3%
same,mortality at 50 ppm,[1]; [10],20%
same,mortality at 50 ppm,[1]; [11],0%
same,mortality at 50 ppm,[1]; [12],20%
same,mortality at 50 ppm,[1]; [13],70%
same,mortality at 50 ppm,[1]; [14],30%
same,mortality at 50 ppm,[1]; [15],40%
same,mortality at 50 ppm,[1]; [16],80%
same,mortality at 50 ppm,[1]; [17],70%
same,mortality at 50 ppm,[1]; [18],70%
same,mortality,[1]; [20],46.7%
same,mortality,[1]; [21],73.3%
same,Eating Area (%) 96 h,[1]; [19],5–10%
same,solubility,"[2]; pH 7.4, aqueous buffer",5.4 µM and 2.67 µg/mL
same,logP,[3],3.45
same,Permeability,[4],- 4.3 ± 0.047
"CNC(=O)c1cc(S(C)(=O)=NC(=O)C(F)(F)F)cc(C)c1NC(=O)c1cc(Br)nn1-c1ncccc1Cl (stereo not drawn) [Compound 16a, 3-Bromo-1-(3-chloropyridin-2-yl)-N-(2-methyl-4-(S-methyl-N-(2,2,2-trifluoroacetyl)sulfonimidoyl)-6-(methylcarbamoyl)phenyl)-1H-pyrazole-5-carboxamide]",mortality,[1]; [20],0%
same,mortality,[1]; [21],0%
same,Eating Area (%) 96 h,[1]; [19],>30%
same,solubility,"[2]; pH 7.4, aqueous buffer",397 µM and 247 µg/mL
same,logP,[3],4.95
same,Permeability,[4],- 4.7 ± 0.075
